EP2826473A1, “NOVEL USE OF PATCHOULOL” (Chengdu Huasun Group Inc., Ltd., priority 2012, dated 2013)
In brackets after ≈: the same amount, converted by molar mass.

Key:
[1] = system: Staphylococcus aureus MRSA; assay: in vitro bacteriostatic activity, agar dilution MIC; assay type: cell-based
[2] = system: Staphylococcus epidermidis ATCC 12228; assay: in vitro bacteriostatic activity, agar dilution MIC, quality control strain; assay type: cell-based; conditions: Staphylococcus epidermidis, ATCC12228
[3] = system: Staphylococcus epidermidis MRSE; assay: in vitro bacteriostatic activity, agar dilution MIC; assay type: cell-based
[4] = system: Staphylococcus aureus MSSA; assay: as above; assay type: cell-based
Enterococcus faecium = assay: as above; assay type: cell-based; conditions: Enterococcus faecium
Enterococcus faecalis = assay: as above; assay type: cell-based; conditions: Enterococcus faecalis
[5] = system: Staphylococcus epidermidis MSSE; assay: as above; assay type: cell-based; conditions: Staphylococcus epidermidis
[6] = system: Methicillin-resistant Staphylococcus aureus ATCC 43300; assay: in vivo protection of model mice infected with methicillin-resistant Staphylococcus aureus; design: species or system KM mice; conditions: 4×10^5 units/kg, intraperitoneal injection once a day, within 14 days
Protocol: Tested strains' virulence assay: Methicillin-resistant Staphylococcus aureus was cultured in incubator at 37°C to reach exponential phase of growth, and then diluted with normal saline to obtain different gradient concentrations of bacterial liquid. Different concentrations of bacterial liquid were taken and mixed with equivalent 10% gastric mucin. Bacterial liquid was administrated to mice at 0.5 ml/20 g by intraperitoneal injection, and 5% gastric mucin was used as control. Under a premise of no control mice death, the death rate of mice within 14 days was recorded, and the minimum bacterial volumes leading to death of whole mice were measured, i.e. the minimum lethal dose (MLD) of bacterial liquid.
Pretesting of effective dose in vivo: Infection model mice infected by Methicillin-resistant Staphylococcus aureus were randomly divided into a few of groups (four mice per group), and a graded dose of each bacterial liquid was separately administrated to mice in each test group at one time per day. Moreover, administration of test drug was done one day ahead of schedule, and toxic substances were not eliminated until 0.5 h after administration on the second day. The death status of mice within 14 days was observed, to determine the dosage used in the formal experiment.
KM mice (grade SPF), half male and half female, weighing 18-22 g were randomly divided into […] groups with ten mice for each group, i.e. the group receiving vancomycin hydrochloride for injection; the groups receiving high, medium, and low doses of patchoulol; blank group; model group; and control group receiving gastric mucin. All of the mice were administrated by intraperitoneal injection once a day. The mice were administrated one day in advance and then attacked after 0.5h of administration on the second day, i.e. intraperitoneally injected with methicillin-resistant Staphylococcus aureus liquid containing 5% gastric mucin. Amongst, mice in the model group were given normal saline instead of test drug; mice in the blank group were not given drugs and attacked; mice in the gastric mucin control group were not given test drug, but only injected with 5% gastric mucin without bacteria.
The death status of mice within 14 days after injection of bacteria was observed, and its survival rate was recorded.

Staphylococcus aureus = assay: in vitro bacteriostatic activity, agar dilution MIC, quality control strains; assay type: cell-based; conditions: Staphylococcus aureus, ATCC29213

CN[C@H](CC(C)C)C(=O)N[C@H]1C(=O)N[C@@H](CC(N)=O)C(=O)N[C@H]2C(=O)N[C@H]3C(=O)N[C@H](C(=O)N[C@H](C(=O)O)c4cc(O)cc(O)c4-c4cc3ccc4O)[C@H](O)c3ccc(c(Cl)c3)Oc3cc2cc(c3O[C@@H]2O[C@H](CO)[C@@H](O)[C@H](O)[C@H]2O[C@H]2C[C@](C)(N)[C@H](O)[C@H](C)O2)Oc2ccc(cc2Cl)[C@H]1O [vancomycin]
MIC ([1]; ATCC 43300 / MRSA, Methicillin-resistant Staphylococcus aureus ATCC 43300): 1 µg/mL (≈ 0.69 µM) | MIC ([1]; MRSA, Staphylococcus aureus MRSA 12-11): 2 µg/mL (≈ 1.38 µM) | MIC ([1]; MRSA, Staphylococcus aureus MRSA 12-12): 1 µg/mL (≈ 0.69 µM) | MIC ([1]; MRSA, Staphylococcus aureus MRSA 12-13): 1 µg/mL (≈ 0.69 µM) | MIC ([1]; MRSA, Staphylococcus aureus MRSA 12-14): 1 µg/mL (≈ 0.69 µM) | MIC ([1]; MRSA, Staphylococcus aureus MRSA 12-15): 1 µg/mL (≈ 0.69 µM) | MIC ([1]; MRSA, Staphylococcus aureus MRSA 12-16): 2 µg/mL (≈ 1.38 µM) | MIC ([1]; MRSA, Staphylococcus aureus MRSA 12-17): 1 µg/mL (≈ 0.69 µM) | MIC ([1]; MRSA, Staphylococcus aureus MRSA 12-18): 1 µg/mL (≈ 0.69 µM) | MIC ([1]; MRSA, Staphylococcus aureus MRSA 12-19): 2 µg/mL (≈ 1.38 µM) | MIC ([1]; MRSA, Staphylococcus aureus MRSA 12-20): 1 µg/mL (≈ 0.69 µM) | MIC [2]: 1 µg/mL (≈ 0.69 µM) | MIC ([3]; Staphylococcus epidermidis MRSE 12-11): 8 µg/mL (≈ 5.52 µM) | MIC ([3]; Staphylococcus epidermidis MRSE 12-12): 0.5 µg/mL (≈ 0.345 µM) | MIC ([3]; Staphylococcus epidermidis MRSE 12-15): 2 µg/mL (≈ 1.38 µM) | MIC ([3]; Staphylococcus epidermidis MRSE 12-16): 2 µg/mL (≈ 1.38 µM) | MIC ([3]; Staphylococcus epidermidis MRSE 12-17): 2 µg/mL (≈ 1.38 µM) | MIC ([3]; Staphylococcus epidermidis MRSE 12-18): 2 µg/mL (≈ 1.38 µM) | MIC ([3]; Staphylococcus epidermidis MRSE 12-19): 2 µg/mL (≈ 1.38 µM) | MIC ([3]; Staphylococcus epidermidis MRSE 12-20): 2 µg/mL (≈ 1.38 µM) | MIC ([3]; Staphylococcus epidermidis MRSE 12-21): 2 µg/mL (≈ 1.38 µM) | MIC ([3]; Staphylococcus epidermidis MRSE 12-22): 1 µg/mL (≈ 0.69 µM) | MIC ([4]; Staphylococcus aureus MSSA 12-11): 1 µg/mL (≈ 0.69 µM) | MIC ([4]; Staphylococcus aureus MSSA 12-13): 1 µg/mL (≈ 0.69 µM) | MIC ([4]; Staphylococcus aureus MSSA 12-14): 1 µg/mL (≈ 0.69 µM) | MIC ([4]; Staphylococcus aureus MSSA 12-15): 1 µg/mL (≈ 0.69 µM) | MIC ([4]; Staphylococcus aureus MSSA 12-16): 1 µg/mL (≈ 0.69 µM) | MIC ([4]; Staphylococcus aureus MSSA 12-17): 1 µg/mL (≈ 0.69 µM) | MIC ([4]; Staphylococcus aureus MSSA 12-18): 1 µg/mL (≈ 0.69 µM) | MIC ([4]; Staphylococcus aureus MSSA 12-19): 1 µg/mL (≈ 0.69 µM) | MIC ([4]; Staphylococcus aureus MSSA 12-21): 1 µg/mL (≈ 0.69 µM) | MIC ([4]; Staphylococcus aureus, MSSA): 1 µg/mL (≈ 0.69 µM) | MIC (Enterococcus faecium; ATCC33186, Enterococcus faecium ATCC 33186): 1 µg/mL (≈ 0.69 µM) | MIC (Enterococcus faecium; Enterococcus faecium 12-7): 0.5 µg/mL (≈ 0.345 µM) | MIC (Enterococcus faecium; Enterococcus faecium 12-8): 0.5 µg/mL (≈ 0.345 µM) | MIC (Enterococcus faecium; Enterococcus faecium 12-9): 1 µg/mL (≈ 0.69 µM) | MIC (Enterococcus faecium; Enterococcus faecium 12-10): 4 µg/mL (≈ 2.76 µM) | MIC (Enterococcus faecium; Enterococcus faecium 12-11): 0.5 µg/mL (≈ 0.345 µM) | MIC (Enterococcus faecium; Enterococcus faecium 12-12): 1 µg/mL (≈ 0.69 µM) | MIC (Enterococcus faecium; Enterococcus faecium 12-13): 4 µg/mL (≈ 2.76 µM) | MIC (Enterococcus faecium; Enterococcus faecium 12-14): 0.5 µg/mL (≈ 0.345 µM) | MIC (Enterococcus faecium; Enterococcus faecium 12-15): 1 µg/mL (≈ 0.69 µM) | MIC (Enterococcus faecium; Enterococcus faecium 12-16): 1 µg/mL (≈ 0.69 µM) | MIC (Enterococcus faecalis; ATCC29212, Enterococcus faecalis ATCC 29212): 2 µg/mL (≈ 1.38 µM) | MIC (Enterococcus faecalis; ATCC51299, Enterococcus faecalis (high endurance) ATCC 51299): 2 µg/mL (≈ 1.38 µM) | MIC (Enterococcus faecalis; Enterococcus faecalis 12-11): > 128 µg/mL | MIC (Enterococcus faecalis; Enterococcus faecalis 12-12): 1 µg/mL (≈ 0.69 µM) | MIC (Enterococcus faecalis; Enterococcus faecalis 12-13): 2 µg/mL (≈ 1.38 µM) | MIC (Enterococcus faecalis; Enterococcus faecalis 12-14): 1 µg/mL (≈ 0.69 µM) | MIC (Enterococcus faecalis; Enterococcus faecalis 12-17): 2 µg/mL (≈ 1.38 µM) | MIC (Enterococcus faecalis; Enterococcus faecalis 12-18): 1 µg/mL (≈ 0.69 µM) | MIC (Enterococcus faecalis; Enterococcus faecalis 12-19): 2 µg/mL (≈ 1.38 µM) | MIC (Enterococcus faecalis; Enterococcus faecalis 12-20): 2 µg/mL (≈ 1.38 µM) | MIC (Enterococcus faecalis; Enterococcus faecalis 12-21): 1 µg/mL (≈ 0.69 µM) | MIC (Enterococcus faecalis; Enterococcus faecalis 12-22): 1 µg/mL (≈ 0.69 µM) | MIC ([5]; Staphylococcus epidermidis MSSE 12-11): 1 µg/mL (≈ 0.69 µM) | MIC ([5]; Staphylococcus epidermidis MSSE 12-12): 2 µg/mL (≈ 1.38 µM) | MIC ([5]; Staphylococcus epidermidis MSSE 12-13): 1 µg/mL (≈ 0.69 µM) | MIC ([5]; Staphylococcus epidermidis MSSE 12-14): 2 µg/mL (≈ 1.38 µM) | MIC ([5]; Staphylococcus epidermidis MSSE 12-15): 2 µg/mL (≈ 1.38 µM) | MIC ([5]; Staphylococcus epidermidis MSSE 12-16): 0.5 µg/mL (≈ 0.345 µM) | MIC ([5]; Staphylococcus epidermidis MSSE 12-17): 0.5 µg/mL (≈ 0.345 µM) | MIC ([5]; Staphylococcus epidermidis MSSE 12-18): 0.25 µg/mL (≈ 0.173 µM) | MIC ([5]; Staphylococcus epidermidis MSSE 12-19): 1 µg/mL (≈ 0.69 µM) | MIC ([5]; Staphylococcus epidermidis MSSE 12-20): 1 µg/mL (≈ 0.69 µM) | Survival number ([6]; 10 animals): 10 | Survial rate (%) [6]: 100% | MIC (Staphylococcus aureus): 0.5 µg/mL (≈ 0.345 µM)
